Tested on: dT10
Assay: Thermal denaturation (UV absorbance melting curve, Tm) of hybrids with complementary oligonucleotide dT10
Assay type: binding
Settings: for Tm (°C.) Me2 AsO2 Na: 10 mM sodium cacodylate buffer; for Tm (°C.) Nax PO4: phosphate buffer
Source text: Thermal denaturation of an ordered, native structure of a nucleic acid disrupts the base-pair stacking and, as a result, the UV absorbance increases. The change in UV absorbance, known as […], is a measure of base-pairing and base-stacking between the two complementary strands. The UV absorbance profile as a function of temperature is called a melting curve and the midpoint of this curve is defined as the melting temperature, Tm, at which 50% of the double strand is dissociated into its two single strands. Thus, the measurement of UV absorbance melting curves provides qualitative and quantitative structural information about the nucleic acid bound to its complementary ligand. Tm also depends on the concentration of the oligonucleotide and the properties of the solvent (buffer: pH, ionic strength, etc.).
Binding studies were carried out by hybridizing the isolated PENAM described above to its complementary oligonucleotide "dT10 " followed by thermal denaturation and measurement of UV absorbance as a function of temperature. The synthetic oligodeoxynucleotide (ODN) dT10 and its complementary oligodeoxynucleotide dA10 were used as the reference nucleic acids. The samples prepared in phosphate buffer (Nax PO4) can precipitate magnesium phosphate at high temperature during the thermal denaturation cycle. This problem was readily avoided by repeating the experiment in 10 mM sodium cacodylate buffer (Me2 AsO2 Na) instead of the phosphate buffer.

[1] = dT10 + 2KpA10 Km, stoichiometry 1:0:2
[2] = dT10 + KpA10 Km, stoichiometry 1:0:1
[3] = dT10 + dA10 + 2KpA10 Km, stoichiometry 1:1:2
[4] = dT10 + dA10 + KpA10 Km, stoichiometry 1:1:1
[5] = thermal denaturation, summary of Table 1

What does the source list for “H-Lys-{(D/L)-(AdhAla)10 }-Lys-NH2 [KpA10 Km]”?
Tm (°C.) Me2 AsO2 Na (2dT10 + KpA10 Km, stoichiometry 2:0:1): 32.28 °C; Tm (°C.) Me2 AsO2 Na [1]: 32.57 °C; Tm (°C.) Nax PO4 [1]: 30.8 °C; Tm (°C.) Me2 AsO2 Na [2]: 31.00 °C; Tm (°C.) Nax PO4 [2]: 31.26 °C; Tm (°C.) Me2 AsO2 Na [3]: 32.26 °C; Tm (°C.) Nax PO4 [3]: 30.07 °C; Tm (°C.) Me2 AsO2 Na [4]: 31.052 °C; Tm (°C.) Nax PO4 [4]: 31.41 °C; Binding to complementary nucleic acid strand [5]: binds to its complementary nucleic acid strand; Melting temperature compared with reference ODN dT10:dA10 [5]: melt at an even higher temperature than the reference ODN
